Measured values: patent publication US20100075907A1, “NEUROMEDIN U RECEPTOR AGONISTS AND USES THEREOF” (priority 2006, published 2010)
Starred links: 1 amine or outer side, 2 acyl side, 3 side chain; linkers in the order of their positions; H or OH if unused. Residues, ends and D or L forms follow the SMILES beside them. No end group written: not given here. *: point of attachment. X1 = CC(C)CCC[C@@H](C)[C@H]1CC[C@H]2[C@@H]3CC=C4C[C@@H](OC(=O)C*)CC[C@]4(C)[C@H]3CC[C@]12C; X2 = CCN1C(=O)CC(SC[C@H](NC(C)=O)C(=O)NCCCOCCOCCOCCCN*)C1=O; Succinimide(1-Et,3-yl) = CCN1C(=O)CC(*)C1=O; Palmitoyl = CCCCCCCCCCCCCCCC(=O)*; Suc = O=C(CCC(=O)[*:2])[*:1]

Target: T1, mouse NMUR1-ATG (Mus musculus, UniProt O55040)
T1 sequence (O55040 1-428): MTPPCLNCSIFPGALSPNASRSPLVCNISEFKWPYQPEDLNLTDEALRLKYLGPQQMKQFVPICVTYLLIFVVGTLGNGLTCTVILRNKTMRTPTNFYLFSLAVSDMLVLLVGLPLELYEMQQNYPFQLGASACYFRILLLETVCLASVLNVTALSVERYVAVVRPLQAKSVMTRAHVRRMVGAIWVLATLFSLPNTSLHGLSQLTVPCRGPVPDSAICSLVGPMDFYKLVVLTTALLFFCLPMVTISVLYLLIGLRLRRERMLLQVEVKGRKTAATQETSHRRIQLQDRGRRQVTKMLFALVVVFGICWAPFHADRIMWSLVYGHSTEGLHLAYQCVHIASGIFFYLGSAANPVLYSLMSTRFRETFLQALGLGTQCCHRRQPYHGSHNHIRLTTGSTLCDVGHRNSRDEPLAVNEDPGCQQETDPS
Assay: FLIPR calcium mobilization assay, mouse NMUR1-ATG
Format: cell-based
Parameters: expressed in transfected cells; host or cells: FLP-In CHO or HEK-293 FLP-In cells (pcDNA5)
Details: mouse NMUR1-ATG; for % Activity: maximum response at 1 μM compared to hNMU-25; for EC50: FLIPR
Text: Human, mouse or rat cDNAs encoding NMUR1 or NMUR2 (as described in Howard et al. Nature 406: 70-74 (2000) were subcloned in pcDNA5 (Invitrogen) and transfected into FLP-In CHO cells and HEK-293 FLP-In cells purchased from Invitrogen (Carlsbad, Calif.) using lipofectamine (Invitrogen). The Flp-In system allows integration and expression of a particular gene of interest at a specific genomic location utilizing the Flp recombinase from yeast. The transfected cells were selected by growth in medium containing 200 μg/mL hygromycin (Invitrogen). Populations were frozen at early passage numbers, and these stocks were used for further studies. Stable clones that expressed the mRNAs were identified functionally by FLIPR as well as by RT-PCR. […] Two different rodent NMUR1 cell lines were thus generated: one with the codon as predicted from the genomic databases and another cell line with an engineered methionine (ATG) as the start codon. Additionally, stable cell lines expressing the human receptors were generated in HEK-293/aeq17 cells which stably express the aequorin gene under the CMV promoter. The human NMUR2 cDNA was cloned into pcDNA3.1 and human NMUR1 was subcloned into pIRES-puro (Clontech, Mountain View, Calif.), after transfection cells were selected in media containing G418 and either hygromycin (NMUR2) or puromycin (NMUR1).
The NMU receptors signal primarily through Gαq/11 proteins; therefore calcium mobilization assays can be utilized for functional activity.
Stable cell lines expressing human and or rodent NMUR1 or human NMUR2 receptors were plated at a density of 12,000 cells per well overnight on poly-lysine coated 384-well black-walled plates. The following day, the media was removed from the plates and the cells were subsequently loaded with Fluo-3 (Molecular Probes), a calcium sensitive dye, diluted in FLIPR buffer (1× Hank's buffered saline containing 20 mM HEPES, 0.1% BSA, 2.5 mM probenecid (Sigma) and 1.6 mM TR40). All reagents are from Invitrogen unless otherwise noted. Peptide stocks were resuspended in DMSO at a stock concentration of 2 mM and diluted in FLIPR buffer on the day of the experiment to a 4 μM working stock solution.
After a 90 minute incubation at room-temperature, cell plates were loaded onto a FLIPR (Molecular Devices) to monitor cellular fluorescence (excitation=488 nm; emission=540 nm) before and after compound/peptide addition. Eight to twelve point dose responses were tested on NMUR-expressing cell lines using FLIPR with 1 μM peptide as the highest dose. The response after peptide addition was taken as the maximum fluorescence units minus the fluorescence immediately prior to stimulation for each well. EC50 values were calculated using GraphPad Prism (San Diego, Calif.) software.
In vitro responses of Neuromedin U receptor agonists (NMU1 to NMU25) in the FLIPR assay for human (Table 3), mouse (Table 4) and rat (Table 5) NMUR1 and NMUR2. EC50s are reported in nM values. Percent activity refers to the maximum response at 1 μM compared to the hNMU-25 response at the same concentration. NT=not tested.

Molecule	% Activity [%]	EC50 [nM]
CCN1C(=O)CC(SC[C@H](NC(C)=O)C(=O)NCC(=O)N[C@@H](Cc2ccc(O)cc2)C(=O)N[C@@H](Cc2ccccc2)C(=O)N[C@@H](CC(C)C)C(=O)N[C@@H](Cc2ccccc2)C(=O)N[C@@H](CCCNC(=N)N)C(=O)N2CCC[C@H]2C(=O)N[C@@H](CCCNC(=N)N)C(=O)N[C@@H](CC(N)=O)C(N)=O)C1=O (some centres unmarked) [NMU6] (Ac-C(Succinimide(1-Et,3-yl))GYFLFRPRN-NH2)	100	
CCN1C(=O)CC(SC[C@H](NC(C)=O)C(=O)N[C@@H](Cc2ccccc2)C(=O)N[C@@H](CCCNC(=N)N)C(=O)N[C@H](C(=O)N[C@@H](CC(=O)O)C(=O)N[C@@H](CCC(=O)O)C(=O)N[C@@H](CCC(=O)O)C(=O)N[C@@H](Cc2ccccc2)C(=O)N[C@@H](CCC(N)=O)C(=O)N[C@@H](CO)C(=O)N2CCC[C@H]2C(=O)N[C@@H](Cc2ccccc2)C(=O)N[C@@H](C)C(=O)N[C@@H](CO)C(=O)N[C@@H](CCC(N)=O)C(=O)N[C@@H](CO)C(=O)N[C@@H](CCCNC(=N)N)C(=O)NCC(=O)N[C@@H](Cc2ccc(O)cc2)C(=O)N[C@@H](Cc2ccccc2)C(=O)N[C@@H](CC(C)C)C(=O)N[C@@H](Cc2ccccc2)C(=O)N[C@@H](CCCNC(=N)N)C(=O)N2CCC[C@H]2C(=O)N[C@@H](CCCNC(=N)N)C(=O)N[C@@H](CC(N)=O)C(N)=O)C(C)C)C1=O (some centres unmarked) [NMU8] (Ac-C(Succinimide(1-Et,3-yl))FRVDEEFQSPFASQSRGYFLFRPRN-NH2)	100	
CC(=O)N[C@@H](CSCC(=O)O[C@H]1CC[C@@]2(C)C(=CC[C@H]3[C@@H]4CC[C@H]([C@H](C)CCCC(C)C)[C@@]4(C)CC[C@@H]32)C1)C(=O)NCC(=O)N[C@@H](Cc1ccc(O)cc1)C(=O)N[C@@H](Cc1ccccc1)C(=O)N[C@@H](CC(C)C)C(=O)N[C@@H](Cc1ccccc1)C(=O)N[C@@H](CCCNC(=N)N)C(=O)N1CCC[C@H]1C(=O)N[C@@H](CCCNC(=N)N)C(=O)N[C@@H](CC(N)=O)C(N)=O [NMU11] (Ac-C(X1)GYFLFRPRN-NH2)	81.3	
CCN1C(=O)CC(SC[C@H](NC(C)=O)C(=O)NCCCOCCOCCOCCCNC(=O)CCC(=O)N[C@@H](Cc2ccccc2)C(=O)N[C@@H](CC(C)C)C(=O)N[C@@H](Cc2ccccc2)C(=O)N[C@@H](CCCNC(=N)N)C(=O)N2CCC[C@H]2C(=O)N[C@@H](CCCNC(=N)N)C(=O)N[C@@H](CC(N)=O)C(N)=O)C1=O (some centres unmarked) [NMU15, Ac-C1-Ttds-FLFRPRN-CONH2] ({X2-Suc}-FLFRPRN-NH2)	100	
CCN1C(=O)CC(SC[C@H](NC(C)=O)C(=O)N[C@@H](C)C(=O)N[C@@H](CO)C(=O)N[C@@H](CCC(N)=O)C(=O)N[C@@H](CO)C(=O)N[C@@H](CCCNC(=N)N)C(=O)NCC(=O)N[C@@H](Cc2ccc(O)cc2)C(=O)N[C@@H](Cc2ccccc2)C(=O)N[C@@H](CC(C)C)C(=O)N[C@@H](Cc2ccccc2)C(=O)N[C@@H](CCCNC(=N)N)C(=O)N2CCC[C@H]2C(=O)N[C@@H](CCCNC(=N)N)C(=O)N[C@@H](CC(N)=O)C(N)=O)C1=O (some centres unmarked) [NMU17] (Ac-C(Succinimide(1-Et,3-yl))ASQSRGYFLFRPRN-NH2)	100	
CCN1C(=O)CC(SC[C@H](NC(C)=O)C(=O)N[C@@H](Cc2ccccc2)C(=O)N[C@@H](CCC(N)=O)C(=O)N[C@@H](CO)C(=O)N2CCC[C@H]2C(=O)N[C@@H](Cc2ccccc2)C(=O)N[C@@H](C)C(=O)N[C@@H](CO)C(=O)N[C@@H](CCC(N)=O)C(=O)N[C@@H](CO)C(=O)N[C@@H](CCCNC(=N)N)C(=O)NCC(=O)N[C@@H](Cc2ccc(O)cc2)C(=O)N[C@@H](Cc2ccccc2)C(=O)N[C@@H](CC(C)C)C(=O)N[C@@H](Cc2ccccc2)C(=O)N[C@@H](CCCNC(=N)N)C(=O)N2CCC[C@H]2C(=O)N[C@@H](CCCNC(=N)N)C(=O)N[C@@H](CC(N)=O)C(N)=O)C1=O (some centres unmarked) [NMU19] (Ac-C(Succinimide(1-Et,3-yl))FQSPFASQSRGYFLFRPRN-NH2)	100	
CCN1C(=O)CC(SC[C@H](NC(C)=O)C(=O)N[C@@H](CSC2CC(=O)N(CC)C2=O)C(=O)N[C@@H](Cc2ccccc2)C(=O)N[C@@H](CCCNC(=N)N)C(=O)N[C@H](C(=O)N[C@@H](CC(=O)O)C(=O)N[C@@H](CCC(=O)O)C(=O)N[C@@H](CCC(=O)O)C(=O)N[C@@H](Cc2ccccc2)C(=O)N[C@@H](CCC(N)=O)C(=O)N[C@@H](CO)C(=O)N2CCC[C@H]2C(=O)N[C@@H](Cc2ccccc2)C(=O)N[C@@H](C)C(=O)N[C@@H](CO)C(=O)N[C@@H](CCC(N)=O)C(=O)N[C@@H](CO)C(=O)N[C@@H](CCCNC(=N)N)C(=O)NCC(=O)N[C@@H](Cc2ccc(O)cc2)C(=O)N[C@@H](Cc2ccccc2)C(=O)N[C@@H](CC(C)C)C(=O)N[C@@H](Cc2ccccc2)C(=O)N[C@@H](CCCNC(=N)N)C(=O)N2CCC[C@H]2C(=O)N[C@@H](CCCNC(=N)N)C(=O)N[C@@H](CC(N)=O)C(N)=O)C(C)C)C1=O (some centres unmarked) [NMU22] (Ac-C(Succinimide(1-Et,3-yl))C(Succinimide(1-Et,3-yl))FRVDEEFQSPFASQSRGYFLFRPRN-NH2)	100	
CCCCCCCCCCCCCCCC(=O)N[C@@H](CSC1CC(=O)N(CC)C1=O)C(=O)N[C@@H](Cc1ccccc1)C(=O)N[C@@H](CCCNC(=N)N)C(=O)N[C@H](C(=O)N[C@@H](CC(=O)O)C(=O)N[C@@H](CCC(=O)O)C(=O)N[C@@H](CCC(=O)O)C(=O)N[C@@H](Cc1ccccc1)C(=O)N[C@@H](CCC(N)=O)C(=O)N[C@@H](CO)C(=O)N1CCC[C@H]1C(=O)N[C@@H](Cc1ccccc1)C(=O)N[C@@H](C)C(=O)N[C@@H](CO)C(=O)N[C@@H](CCC(N)=O)C(=O)N[C@@H](CO)C(=O)N[C@@H](CCCNC(=N)N)C(=O)NCC(=O)N[C@@H](Cc1ccc(O)cc1)C(=O)N[C@@H](Cc1ccccc1)C(=O)N[C@@H](CC(C)C)C(=O)N[C@@H](Cc1ccccc1)C(=O)N[C@@H](CCCNC(=N)N)C(=O)N1CCC[C@H]1C(=O)N[C@@H](CCCNC(=N)N)C(=O)N[C@@H](CC(N)=O)C(N)=O)C(C)C (some centres unmarked) [NMU24] (Palmitoyl-C(Succinimide(1-Et,3-yl))FRVDEEFQSPFASQSRGYFLFRPRN-NH2)	81.4	
Ac-C2FQSPFASQSRGYFLFRPRN-CONH2 ({Ac-C(PEG 40 kDa)}-FQSPFASQSRGYFLFRPRN-NH2; not fully specified; printed as Ac-C2FQSPFASQSRGYFLFRPRN-CONH2) [NMU20, C2 = Cys(PEG)240 kDa]		12.7
Ac-C2FRVDEEFQSPFASQSRGYFLFRPRN-CONH2 [NMU9] ({Ac-C(PEG 40 kDa)}-FRVDEEFQSPFASQSRGYFLFRPRN-NH2) [C2 = Cys(PEG)240 kDa from Nektar (mPEG2-MAL-40 k)]	95.0	45.7
Ac-C4-C4-FRVDEEFQSPFASQSRGYFLFRPRN-CONH2 ({Ac-C(PEG 20 kDa)-C(PEG 20 kDa)}-FRVDEEFQSPFASQSRGYFLFRPRN-NH2) [NMU23, C4 = Cys(PEG)20 kDa]		14
Ac-C4FRVDEEFQSPFASQSRGYFLFRPRN-CONH2 ({Ac-C(PEG 20 kDa)}-FRVDEEFQSPFASQSRGYFLFRPRN-NH2) [NMU21, C4 = Cys(PEG)20 kDa]		9.1
Ac-FRVDEEFQSPFASQSRGYFLFRPRN-NH2 [NMU2]	100	
Ac-FRVDEEFQSPFASQSRPYFLFRPRN-NH2 [NMU5]	100	
GYFLFRPRN-NH2 [NMU3]	100	
H-FRVDEEFQSPFASQSRPYFLFRPRN-NH2 [NMU4]	100	
